Earlier results in patent US20150045288A1, “COMPOSITION” (priority 2012, published 2015).
Read-outs that look alike come from different tables or passages of the source.

Conditions: 50% ethanol solution

difficidin
t90 (time at which 90% of the inhibitory substance remains as tested by HPLC) (pH 3.5, room temperature): 2 h
t90 (time at which 90% of the inhibitory substance remains as tested by HPLC) (pH 11, room temperature): 17 h
